Reference: EP4711369A1, “1H-[1,2,3]TRIAZOLO[4,5-H]QUINAZOLINE COMPOUNDS AS PROTEIN KINASE INHIBITORS” (Chengdu Cynogen Bio-Pharmaceutical Technology Co., Ltd., priority 2023, dated 2024)

Key:
CDK2/cyclin E = CDK2/cyclin E (Homo sapiens, UniProt P24941); assay: Assay of kinase activity (ADP-Glo); assay type: biochemical; conditions: kinase inhibitory activity, read-out: CDK2/E1 IC50
Procedure, shortened: (§1)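 Kinase preincubated 10 min with compound in 50 mM Hepes, 10 mM MgCl2, 0.01% Brij35, 2 mM DTT, then substrate/ATP added for 60 min at 25 °C. ADP formed measured by ADP-Glo luminescence; IC50 by nonlinear concentration-response fitting.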

CDK4/cyclin D1 = CDK4/cyclin D1 (Homo sapiens, UniProt P11802); assay: Assay of kinase activity (ADP-Glo); assay type: biochemical; conditions: kinase inhibitory activity
Sequence of CDK4/cyclin D1 (P11802 whole entry, species assumed): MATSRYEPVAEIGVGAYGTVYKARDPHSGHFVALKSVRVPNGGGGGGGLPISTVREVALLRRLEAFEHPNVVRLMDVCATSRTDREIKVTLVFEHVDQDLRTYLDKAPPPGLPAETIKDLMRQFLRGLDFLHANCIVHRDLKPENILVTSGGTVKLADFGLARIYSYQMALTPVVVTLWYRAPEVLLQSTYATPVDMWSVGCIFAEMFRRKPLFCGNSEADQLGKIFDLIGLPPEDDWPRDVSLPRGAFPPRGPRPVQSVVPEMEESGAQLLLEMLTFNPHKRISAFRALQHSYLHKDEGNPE
Sequence of CDK4/cyclin D1 (P24385 whole entry partner, species assumed): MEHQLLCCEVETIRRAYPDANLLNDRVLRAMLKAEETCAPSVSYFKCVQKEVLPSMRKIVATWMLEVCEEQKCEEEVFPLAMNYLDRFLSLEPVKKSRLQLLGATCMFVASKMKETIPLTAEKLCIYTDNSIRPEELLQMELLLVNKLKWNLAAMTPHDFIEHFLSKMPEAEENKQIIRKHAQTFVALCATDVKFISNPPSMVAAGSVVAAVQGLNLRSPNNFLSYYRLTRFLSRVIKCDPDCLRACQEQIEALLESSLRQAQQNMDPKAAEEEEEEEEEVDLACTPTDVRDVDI
Procedure, shortened: as §1

[1] = tested on: human acute myeloid leukemia MV-4-11 cells; assay: Assay of cell proliferation (CellTiter-Glo); assay type: cell-based; conditions: MV4-11, 144 h, 6 days, read-out: MV-4-11 IC50 of cell proliferation inhibitory activity
Procedure, shortened: (§2)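 Cells seeded per line at growth-adapted densities, treated 6 days at 37 °C/5% CO2 with nine 3-fold dilutions (10 µM to 0.1 nM final, 0.5% DMSO). Viability by CellTiter-Glo luminescence; IC50 from four-parameter fit.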

[2] = tested on: human breast cancer HCC1806 cells; assay: Assay of cell proliferation (CellTiter-Glo); assay type: cell-based; conditions: Homo sapiens, 144 h, 6 days, read-out: HCC1806 IC50 of cell proliferation inhibitory activity
Procedure, shortened: as §2

[3] = tested on: human breast cancer MCF-7 cells; assay: Assay of cell proliferation (CellTiter-Glo); assay type: cell-based; conditions: 144 h, MCF7 cells, 6 days, read-out: MCF7 IC50 of cell proliferation inhibitory activity
Procedure, shortened: as §2

[4] = tested on: human colon cancer HCT-116 cells; assay: Assay of cell proliferation (CellTiter-Glo); assay type: cell-based; conditions: 144 h, 6 days, read-out: HCT-116 IC50 of cell proliferation inhibitory activity
Procedure, shortened: as §2

[5] = tested on: human gastric cancer MKN1 cells; assay: Assay of cell proliferation (CellTiter-Glo); assay type: cell-based; conditions: Homo sapiens, MKN-1, 144 h; MNK1, 6 days; read-out: MKN1 IC50 of cell proliferation inhibitory activity
Procedure, shortened: as §2

[6] = tested on: Human ovarian cancer OVCAR3 cells; assay: Assay of cell proliferation (CellTiter-Glo); assay type: cell-based; conditions: Homo sapiens, OVCAR-3, 144 h, 6 days, read-out: OVCAR3 IC50 of cell proliferation inhibitory activity
Procedure, shortened: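 OVCAR3 cells, 2000/well in RPMI 1640 with 20% FBS, treated with nine 3-fold dilutions from 10 µM to 0.1 nM (0.5% DMSO) for 6 days at 37 °C. Viability by CellTiter-Glo luminescence; IC50 by four-parameter fit.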

[7] = tested on: Human gastric cancer MKN1 cells; assay: MKN1 tumor model; assay type: in vivo; conditions: female BALB/c nude mice, p.o. 10, 20 and 30 mg/kg once daily, 22 days, Fig. 4
Experimental: Human gastric cancer MKN1 cells were cultured in RPMI 1640 medium containing 10% FBS at 37 °C and 5% CO2 in an incubator. Matrigel was mixed with serum-free RPMI 1640 medium at a ratio of 1:1, and then the mixture was used to resuspend the MKN1 cancer cells at 1 × 10^7 / 0.1 ml. Then, the cells were inoculated subcutaneously into the right rib area of female BALB/c nude mice. When the volume of tumors reached approximately 100-150 mm^3, the mice were randomly divided into groups for treatment, with six animals per group. The compound was prepared in a 20% aqueous solution of hydroxypropyl-gamma-cyclodextrin containing an equivalent amount of hydrochloric acid, and administered by oral gavage (p.o.) at dosages of 10, 20, and 30 (mg/kg) once daily, for a total of 22 days. The untreated group was given solvent by oral gavage. The tumor volume was measured twice a week using a vernier caliper by measuring the long and short diameters of a tumor. The formula for calculating a tumor volume was: volume (mm^3) = (long diameter (mm) × short diameter (mm) × short diameter (mm)/2. The mice were weighed daily.
The therapeutic effect of a drug was evaluated using the tumor growth inhibition (TGI%).

- IC50 (CDK2/cyclin E): 0.1 nM
- IC50 (CDK4/cyclin D1): 0.6 nM
- IC50 [1]: 4 nM
- IC50 [2]: 22 nM
- IC50 [3]: 11 nM
- IC50 [4]: 11 nM
- IC50 [5]: 15 nM
- IC50 [6]: 16 nM
Compound: CC(C)n1nnc2ccc3cnc(Nc4ccc(C(=O)N5CC[C@H](N(C)C)C5)cc4)nc3c21 [Example I-10, (S)-(3-(Dimethylamino)pyrrolidin-1-yl)(4-((1-isopropyl-1H-[1,2,3]triazolo[4,5-H]quinazolin-8-yl)amino)phenyl)metha none]
- growth inhibitory effect on the MKN1 tumor model (TGI%) [7]: dose-dependent relationship
